Data as given in paper PMC10326263 (Acta Pharmaceutica Sinica. B, 2023).

Tests used:
[1] = Cytotoxicity in mock-infected MT-4 cells, MTT method; assay type: cell-based; details: human, mock-infected MT-4 cells, CC50, mock-infected MT-4 cells
[2] = test system: HIV-1 mutant strain L100I; test: microbe, parasite or virus in culture; assay type: cell-based; details: Human immunodeficiency virus 1, MT4, read-out: EC50 L100I
[3] = test system: HIV-1 mutant strain K103N; test: microbe, parasite or virus in culture; assay type: cell-based; details: Human immunodeficiency virus 1, MT4, read-out: EC50 K103N
[4] = test system: HIV-1 mutant strain Y181C; test: microbe, parasite or virus in culture; assay type: cell-based; details: Human immunodeficiency virus 1, MT4, read-out: EC50 Y181C
[5] = test system: HIV-1 mutant strain Y188L; test: microbe, parasite or virus in culture; assay type: cell-based; details: Human immunodeficiency virus 1, MT4, read-out: EC50 Y188L
[6] = test system: HIV-1 mutant strain E138K; test: microbe, parasite or virus in culture; assay type: cell-based; details: Human immunodeficiency virus 1, MT4, read-out: EC50 E138K
[7] = test system: HIV-1 mutant strain F227L + V106A; test: microbe, parasite or virus in culture; assay type: cell-based; details: Human immunodeficiency virus 1, MT4, read-out: EC50 F227L + V106A
[8] = test system: HIV-1 mutant strain RES056 (K103N + Y181C); test: microbe, parasite or virus in culture; assay type: cell-based; details: Human immunodeficiency virus 1, MT4, read-out: EC50 RES056
HIV-1 WT strain (IIIB) = test: Anti-HIV activity against WT HIV-1

Structure (SMILES)	CC50 at 5 days [1] [nM]	EC50 [2] [nM]	EC50 [3] [nM]	EC50 [4] [nM]	EC50 [5] [nM]	EC50 [6] [nM]	EC50 [7] [nM]	EC50 [8] [nM]	SI IIIB (CC50/EC50 ratio) (HIV-1 WT strain (IIIB); WT HIV-1 IIIB)	selectivity index, times higher than that of IAS-0 (HIV-1 WT strain (IIIB); WT HIV-1) [times]	EC50 (HIV-1 WT strain (IIIB); read-out: EC50 IIIB, WT HIV-1 IIIB, MT-4 cells) [nM]
Cc1cc(C)cc(S(=O)(=O)c2c(C(=O)NCCNS(=O)(=O)c3ccccc3)[nH]c3ccc(Cl)cc23)c1 [R9L2, 5-Chloro-3-((3,5-dimethylphenyl)sulfonyl)-N-(2-(phenylsulfonamido)ethyl)-1H-indole-2-carboxamide]	185000 ± 8310	260 ± 110	240 ± 37	260 ± 73	2810 ± 290	220 ± 73	1120 ± 350	3140 ± 110	13,509	–	–
Cc1cc(C)cc(S(=O)(=O)c2c(C(=O)NCCCNS(=O)(=O)c3ccccc3)[nH]c3ccc(Cl)cc23)c1 [R9L3, 5-Chloro-3-((3,5-dimethylphenyl)sulfonyl)-N-(3-(phenylsulfonamido)propyl)-1H-indole-2-carboxamide]	> 224000	180 ± 54	320 ± 72	700 ± 270	3080 ± 250	55 ± 18	800 ± 250	4760 ± 800	>8047	–	–
Cc1cc(C)cc(S(=O)(=O)c2c(C(=O)NCCCCNS(=O)(=O)c3ccccc3)[nH]c3ccc(Cl)cc23)c1 [R9L4, 5-Chloro-3-((3,5-dimethylphenyl)sulfonyl)-N-(4-(phenylsulfonamido)butyl)-1H-indole-2-carboxamide]	113000 ± 26800	28 ± 8.7	150 ± 45	150 ± 33	870 ± 170	31 ± 7	280 ± 52	> 115000	15,106	–	–
Cc1cc(C)cc(S(=O)(=O)c2c(C(=O)NCCCCCNS(=O)(=O)c3ccccc3)[nH]c3ccc(Cl)cc23)c1 [R9L5, 5-Chloro-3-((3,5-dimethylphenyl)sulfonyl)-N-(5-(phenylsulfonamido)pentyl)-1H-indole-2-carboxamide]	129000 ± 6850	44 ± 5	340 ± 51	220 ± 17	1460 ± 560	36 ± 7	220 ± 85	> 119000	8814	–	–
Cc1cc(C)cc(S(=O)(=O)c2c(C(=O)NCCNS(=O)(=O)c3cccnc3)[nH]c3ccc(Cl)cc23)c1 [R10L2, 5-Chloro-3-((3,5-dimethylphenyl)sulfonyl)-N-(2-(pyridine-3-sulfonamido)ethyl)-1H-indole-2-carboxamide]	23400 ± 750	140 ± 46	290 ± 55	290 ± 18	2200 ± 400	120 ± 33	1480 ± 270	4600 ± 310	3205	–	–
Cc1cc(C)cc(S(=O)(=O)c2c(C(=O)NCCCNS(=O)(=O)c3cccnc3)[nH]c3ccc(Cl)cc23)c1 [R10L3, 5-Chloro-3-((3,5-dimethylphenyl)sulfonyl)-N-(3-(pyridine-3-sulfonamido)propyl)-1H-indole-2-carboxamide]	55100 ± 8070	100 ± 32	200 ± 36	200 ± 18	2320 ± 110	43 ± 5	540 ± 270	7770 ± 2320	6950	–	–
Cc1cc(C)cc(S(=O)(=O)c2c(C(=O)NCCCCCNS(=O)(=O)c3cccnc3)[nH]c3ccc(Cl)cc23)c1 [R10L5, 5-Chloro-3-((3,5-dimethylphenyl)sulfonyl)-N-(5-(pyridine-3-sulfonamido)pentyl)-1H-indole-2-carboxamide]	41900 ± 2180	46 ± 14	190 ± 34	110 ± 22	730 ± 34	29 ± 12	140 ± 75	10600 ± 6700	5513	–	–
Cc1cc(C)cc(S(=O)(=O)c2c(C(=O)NCCNS(=O)(=O)c3ccccc3F)[nH]c3ccc(Cl)cc23)c1 [R11L2, 5-Chloro-3-((3,5-dimethylphenyl)sulfonyl)-N-(2-((2-fluorophenyl)sulfonamido)ethyl)-1H-indole-2-carboxamide]	199000 ± 8290	250 ± 71	210 ± 53	280 ± 36	2680 ± 250	200 ± 36	1230 ± 430	3040 ± 210	11,116	–	–
Cc1cc(C)cc(S(=O)(=O)c2c(C(=O)NCCCNS(=O)(=O)c3ccccc3F)[nH]c3ccc(Cl)cc23)c1 [R11L3, 5-Chloro-3-((3,5-dimethylphenyl)sulfonyl)-N-(3-((2-fluorophenyl)sulfonamido)propyl)-1H-indole-2-carboxamide]	192000 ± 4990	160 ± 78	280 ± 35	610 ± 140	7120 ± 760	68 ± 2	880 ± 520	12800 ± 10100	12,570	–	–
Cc1cc(C)cc(S(=O)(=O)c2c(C(=O)NCCCCNS(=O)(=O)c3ccccc3F)[nH]c3ccc(Cl)cc23)c1 [R11L4, 5-Chloro-3-((3,5-dimethylphenyl)sulfonyl)-N-(4-((2-fluorophenyl)sulfonamido)butyl)-1H-indole-2-carboxamide]	189500 ± 1320	63 ± 25	170 ± 17	200 ± 17	1740 ± 320	36 ± 5	290 ± 34	> 190000	20,621	–	–
Cc1cc(C)cc(S(=O)(=O)c2c(C(=O)NCCNS(=O)(=O)c3cccc(F)c3)[nH]c3ccc(Cl)cc23)c1 [R12L2, 5-Chloro-3-((3,5-dimethylphenyl)sulfonyl)-N-(2-((3-fluorophenyl)sulfonamido)ethyl)-1H-indole-2-carboxamide]	187000 ± 4810	460 ± 180	500 ± 89	550 ± 89	3300 ± 300	440 ± 110	2260 ± 550	4940 ± 1240	5151	–	–
Cc1cc(C)cc(S(=O)(=O)c2c(C(=O)NCCCNS(=O)(=O)c3cccc(F)c3)[nH]c3ccc(Cl)cc23)c1 [R12L3, 5-Chloro-3-((3,5-dimethylphenyl)sulfonyl)-N-(3-((3-fluorophenyl)sulfonamido)propyl)-1H-indole-2-carboxamide]	204000 ± 10800	260 ± 87	450 ± 120	750 ± 210	3380 ± 450	110 ± 43	990 ± 140	4730 ± 1040	5799	–	–
Cc1cc(C)cc(S(=O)(=O)c2c(C(=O)NCCCCNS(=O)(=O)c3cccc(F)c3)[nH]c3ccc(Cl)cc23)c1 [R12L4, 5-Chloro-3-((3,5-dimethylphenyl)sulfonyl)-N-(4-((3-fluorophenyl)sulfonamido)butyl)-1H-indole-2-carboxamide]	186000 ± 12500	63 ± 17	240 ± 68	190 ± 34	1450 ± 410	49 ± 12	240 ± 34	> 173000	10,126	–	–
Cc1cc(C)cc(S(=O)(=O)c2c(C(=O)NCCNS(=O)(=O)C3CC3)[nH]c3ccc(Cl)cc23)c1 [R13L2, 5-Chloro-N-(2-(cyclopropanesulfonamido)ethyl)-3-((3,5-dimethylphenyl)sulfonyl)-1H-indole-2-carboxamide]	172000 ± 6910	53 ± 22	110 ± 20	180 ± 57	1650 ± 390	55 ± 16	510 ± 120	32600 ± 7960	41,951	~14	4.1 ± 0.79
Cc1cc(C)cc(S(=O)(=O)c2c(C(=O)NCCNS(=O)(=O)c3ccc(-c4ccccc4)cc3)[nH]c3ccc(Cl)cc23)c1 [R14L2, N-(2-([1,1′-Biphenyl]-4-sulfonamido)ethyl)-5-chloro-3-((3,5-dimethylphenyl)sulfonyl)-1H-indole-2-carboxamide]	64300 ± 11200	950 ± 97	1190 ± 260	1420 ± 370	> 31200	740 ± 97	2990 ± 680	> 82400	317	–	–
